# Measurements taken from patent publication US11339130B1 (Blade Therapeutics, Inc., priority 2016, dated 2022).
# pIC50: −log10 of the molar value. Where two headings read alike, the source gives them in different places.
# Tests used:
# Human Calpain 1/NS1 = molecular target: T1, Human Calpain 1/NS1 (Homo sapiens, UniProt P07384); test: Calpain inhibition continuous fluorescence (FRET) assay, Human Calpain 1/NS1; assay type: biochemical; details: read-out: Human Calpain 1/NS1 IC50
# T1 sequence (P07384 1-714): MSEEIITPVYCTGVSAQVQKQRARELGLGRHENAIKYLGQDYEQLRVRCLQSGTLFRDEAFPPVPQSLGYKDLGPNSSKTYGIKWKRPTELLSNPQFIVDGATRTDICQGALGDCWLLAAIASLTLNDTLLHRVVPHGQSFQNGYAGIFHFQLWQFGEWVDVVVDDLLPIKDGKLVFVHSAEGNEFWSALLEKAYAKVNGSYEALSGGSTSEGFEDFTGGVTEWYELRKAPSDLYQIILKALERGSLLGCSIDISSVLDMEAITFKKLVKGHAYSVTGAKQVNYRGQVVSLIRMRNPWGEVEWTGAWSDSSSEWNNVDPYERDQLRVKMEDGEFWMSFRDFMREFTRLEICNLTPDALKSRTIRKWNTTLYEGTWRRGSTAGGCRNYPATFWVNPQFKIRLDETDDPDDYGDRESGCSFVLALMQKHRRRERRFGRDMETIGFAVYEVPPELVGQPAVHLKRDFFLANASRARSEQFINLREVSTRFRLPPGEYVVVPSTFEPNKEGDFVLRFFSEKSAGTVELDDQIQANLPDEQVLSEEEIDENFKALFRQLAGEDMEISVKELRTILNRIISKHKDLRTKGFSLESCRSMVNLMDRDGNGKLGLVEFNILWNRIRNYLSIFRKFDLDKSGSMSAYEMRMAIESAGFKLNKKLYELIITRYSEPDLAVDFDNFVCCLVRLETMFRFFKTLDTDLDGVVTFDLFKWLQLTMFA
# T1 sequence (P04632 1-268 partner): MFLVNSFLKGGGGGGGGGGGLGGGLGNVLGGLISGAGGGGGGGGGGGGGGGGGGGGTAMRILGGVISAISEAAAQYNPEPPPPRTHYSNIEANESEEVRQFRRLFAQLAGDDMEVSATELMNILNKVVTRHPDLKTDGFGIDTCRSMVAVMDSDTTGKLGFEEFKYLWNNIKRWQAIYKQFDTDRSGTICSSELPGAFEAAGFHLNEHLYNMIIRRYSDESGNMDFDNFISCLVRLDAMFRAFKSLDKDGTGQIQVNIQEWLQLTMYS
# Method in brief: (§1)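 Human calpains 1, 2 and 9 preincubated with inhibitor at 25 °C in 50 mM Tris pH 7.5, 100 mM NaCl, 1 mM DTT; reaction started with 5-FAM/QXL 520 FRET peptide plus CaCl2 for activation. Fluorescence (490/520 nm) followed 10 min; rates from 1-5 min slopes fitted to 4-parameter logistic for IC50.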
# Human Calpain 2/NS1 = molecular target: T2, Human Calpain 2/NS1 (Homo sapiens, UniProt P17655); test: Calpain inhibition continuous fluorescence (FRET) assay, Human Calpain 2/NS1; assay type: biochemical; details: read-out: Human Calpain 2/NS1 IC50
# T2 sequence (P17655 1-700): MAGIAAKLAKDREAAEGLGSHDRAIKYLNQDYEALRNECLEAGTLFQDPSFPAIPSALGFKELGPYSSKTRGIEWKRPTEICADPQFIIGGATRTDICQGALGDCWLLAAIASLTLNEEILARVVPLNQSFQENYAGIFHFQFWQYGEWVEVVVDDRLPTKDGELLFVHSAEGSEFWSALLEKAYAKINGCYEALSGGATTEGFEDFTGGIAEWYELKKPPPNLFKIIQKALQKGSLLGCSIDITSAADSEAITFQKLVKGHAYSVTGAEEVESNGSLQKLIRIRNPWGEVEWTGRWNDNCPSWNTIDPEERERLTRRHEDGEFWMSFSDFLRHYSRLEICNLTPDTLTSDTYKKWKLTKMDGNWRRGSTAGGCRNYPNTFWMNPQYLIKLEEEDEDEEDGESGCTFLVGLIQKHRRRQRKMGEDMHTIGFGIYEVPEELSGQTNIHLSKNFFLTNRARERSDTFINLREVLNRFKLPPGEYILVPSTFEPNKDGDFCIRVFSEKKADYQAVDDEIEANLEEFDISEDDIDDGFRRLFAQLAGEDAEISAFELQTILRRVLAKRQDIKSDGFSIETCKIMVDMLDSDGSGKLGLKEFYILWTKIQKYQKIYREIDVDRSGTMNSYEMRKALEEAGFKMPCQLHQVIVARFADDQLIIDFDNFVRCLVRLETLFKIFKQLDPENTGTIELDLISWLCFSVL
# T2 sequence (P04632 1-268 partner): T1 sequence (P04632 1-268 partner)
# Method in brief: as §1
# [1] = system: Calpain activity in SH-SY5Y cells; test: SH-SY5Y + AMC fluorescence assay (Suc-LLVY-AMC substrate); assay type: cell-based; details: read-out: SH-SY5Y + AMC IC50
# [2] = system: Calpain activity in SH-SY5Y cells (SBDP-150); test: SH-SY5Y Spectrin western blot assay (SBDP-150 breakdown product, A23187-induced); assay type: cell-based; details: Homo sapiens, SH-SY5Y cells, read-out: SH-SY5Y Spectrin IC50
# Human Calpain 9/NS1 = molecular target: T3, Human Calpain 9/NS1 (Homo sapiens, UniProt O14815); test: Calpain inhibition continuous fluorescence (FRET) assay, Human Calpain 9/NS1; assay type: biochemical; details: read-out: Human Calpain 9/NS1 IC50
# T3 sequence (O14815 1-690): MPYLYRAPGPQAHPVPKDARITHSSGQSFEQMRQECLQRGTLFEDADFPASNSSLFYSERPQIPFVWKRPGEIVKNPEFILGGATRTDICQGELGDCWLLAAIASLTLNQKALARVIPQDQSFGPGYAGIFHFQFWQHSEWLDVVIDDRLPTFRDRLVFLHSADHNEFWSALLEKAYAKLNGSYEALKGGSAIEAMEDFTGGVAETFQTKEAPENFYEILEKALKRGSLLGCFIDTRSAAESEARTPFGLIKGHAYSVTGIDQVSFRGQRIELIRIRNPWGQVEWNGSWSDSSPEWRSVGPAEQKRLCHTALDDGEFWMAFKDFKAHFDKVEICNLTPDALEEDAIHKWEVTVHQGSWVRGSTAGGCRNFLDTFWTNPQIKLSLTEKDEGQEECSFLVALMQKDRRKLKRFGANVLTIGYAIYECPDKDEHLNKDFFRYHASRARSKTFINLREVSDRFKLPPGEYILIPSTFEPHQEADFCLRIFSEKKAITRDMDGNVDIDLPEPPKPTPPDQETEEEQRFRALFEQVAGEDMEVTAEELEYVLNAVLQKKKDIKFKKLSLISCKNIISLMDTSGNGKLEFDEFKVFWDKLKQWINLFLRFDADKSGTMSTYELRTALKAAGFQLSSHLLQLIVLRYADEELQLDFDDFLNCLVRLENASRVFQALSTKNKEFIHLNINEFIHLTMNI
# T3 sequence (P04632 1-268 partner): T1 sequence (P04632 1-268 partner)
# Method in brief: as §1
# [3] = Column D, A23187-induced SBDP-150
# [4] = A23187-induced SBDP-150, western blot
Compound,pIC50 (Human Calpain 1/NS1; Column A),pIC50 (Human Calpain 2/NS1; Column B),pIC50 ([1]; Column E),"pIC50 [2, 3]",pIC50 (Human Calpain 9/NS1; Column C),pIC50 (Human Calpain 1/NS1),pIC50 (Human Calpain 2/NS1),pIC50 [1],"pIC50 [2, 4]",pIC50 (Human Calpain 9/NS1)
"COc1cccc(-n2nc(C)cc2C(=O)N[C@@H](Cc2ccccc2)C(=O)C(N)=O)n1 [Compound 99, (S)—N-(4-amino-3,4-dioxo-1-phenylbutan-2-yl)-1-(6-methoxypyridin-2-yl)-3-methyl-1H-pyrazole-5-carboxamide]",> 5.52,> 5.52,4.60 to 5.00,4.60 to 5.00,> 5.52,,,,,
"Cc1cc(C(=O)N[C@@H](Cc2ccccc2)C(=O)C(N)=O)n(-c2cccc(-c3ccccc3)c2)n1 [Compound 16, (S)-1-([1,1′-biphenyl]-3-yl)-N-(4-amino-3,4-dioxo-1-phenylbutan-2-yl)-3-methyl-1H-pyrazole-5-carboxamide]",> 5.52,> 5.52,4.60 to 5.00,4.60 to 5.00,> 5.52,,,,,
"NC(=O)C(=O)[C@H](Cc1ccccc1)NC(=O)c1cncn1-c1nc2ccccc2s1 [Compound 50, (S)—N-(4-amino-3,4-dioxo-1-phenylbutan-2-yl)-1-(benzo[d]thiazol-2-yl)-1H-imidazole-5-carboxamide]",> 5.52,> 5.52,< 4.60,> 5.00,> 5.52,,,,,
"Cc1n[nH]c(-c2ccccc2)c1C(=O)N[C@@H](Cc1ccccc1)C(=O)C(N)=O [Compound 257, (S)—N-(4-amino-3,4-dioxo-1-phenylbutan-2-yl)-3-methyl-5-phenyl-1H-pyrazole-4-carboxamide]",> 5.52,> 5.52,> 5.00,4.60 to 5.00,> 5.52,,,,,
NC(=O)C(=O)C(Cc1ccccc1)NC(=O)C1CCCN1c1ccccc1 (stereo not drawn) [compound 541],,,,,,> 5.52,> 5.52,< 4.60,4.60 to 5.00,> 5.52
"Cc1cc(C(=O)N[C@@H](Cc2ccccc2)C(=O)C(N)=O)n(-c2ccc(CNC(=O)Cc3ccccc3)cc2)n1 [Compound 159, (S)—N-(4-amino-3,4-dioxo-1-phenylbutan-2-yl)-3-methyl-1-(4-((2-phenylacetamido)methyl)phenyl)-1H-pyrazole-5-carboxamide]",> 5.52,> 5.52,< 4.60,4.60 to 5.00,> 5.52,,,,,
"Cc1cc(C(=O)NC(Cc2ccccc2)C(=O)C(N)=O)n(-c2ccc(CNC(=O)c3ccc(F)cc3)cc2)n1 (stereo not drawn) [Compound 496, N-(4-amino-3,4-dioxo-1-phenylbutan-2-yl)-1-(4-((4-fluorobenzamido)methyl)phenyl)-3-methyl-1H-pyrazole-5-carboxamide]",,,,,,> 5.52,> 5.52,< 4.60,4.60 to 5.00,> 5.52
"NC(=O)C(=O)C(Cc1ccccc1)NC(=O)c1cc(C(F)(F)C(F)(F)F)nn1-c1ccccc1 (stereo not drawn) [Compound 342, N-(4-amino-3,4-dioxo-1-phenylbutan-2-yl)-3-(perfluoroethyl)-1-phenyl-1H-pyrazole-5-carboxamide]",,,,,,> 5.52,> 5.52,4.60 to 5.00,4.60 to 5.00,> 5.52
"CCCC[C@H](NC(=O)c1cn(C)nc1-c1ccccc1)C(=O)C(N)=O [Compound 419, (S)—N-(1-amino-1,2-dioxoheptan-3-yl)-1-methyl-3-phenyl-1H-pyrazole-4-carboxamide]",,,,,,> 5.52,> 5.52,< 4.60,4.60 to 5.00,> 5.52
"Cc1cc(C(=O)N[C@@H](Cc2ccccc2)C(=O)CF)n(-c2ccccc2)n1 [Compound 479, (S)—N-(4-fluoro-3-oxo-1-phenylbutan-2-yl)-3-methyl-1-phenyl-1H-pyrazole-5-carboxamide]",,,,,,> 5.52,> 5.52,< 4.60,4.60 to 5.00,> 5.52
"Cc1ccc(F)c(-c2nn(C(F)F)cc2C(=O)NC(Cc2ccccc2)C(=O)C(N)=O)c1 (stereo not drawn) [Compound 564, N-(4-amino-3,4-dioxo-1-phenylbutan-2-yl)-1-(difluoromethyl)-3-(2-fluoro-5-methylphenyl)-1H-pyrazole-4-carboxamide]",,,,,,> 5.52,> 5.52,> 5.00,> 5.00,> 5.52
"COc1ccc(C[C@H](NC(=O)c2oc(C)nc2-c2ccccc2)C(=O)C(N)=O)cc1 [Compound 385, (S)—N-(4-amino-1-(4-methoxyphenyl)-3,4-dioxobutan-2-yl)-2-methyl-4-phenyloxazole-5-carboxamide]",,,,,,> 5.52,> 5.52,< 4.60,> 5.00,> 5.52
"Cc1cc(F)cc(-c2nn(C(F)F)cc2C(=O)NC(Cc2ccccc2)C(=O)C(N)=O)c1 (stereo not drawn) [Compound 554, N-(4-amino-3,4-dioxo-1-phenylbutan-2-yl)-1-(difluoromethyl)-3-(3-fluoro-5-methylphenyl)-1H-pyrazole-4-carboxamide]",,,,,,> 5.52,> 5.52,> 5.00,> 5.00,> 5.52
"CC[C@H](NC(=O)c1oc(C)nc1-c1ccccc1)C(=O)C(N)=O [Compound 243, (S)—N-(1-amino-1,2-dioxopentan-3-yl)-2-methyl-4-phenyloxazole-5-carboxamide]",> 5.52,> 5.52,< 4.60,4.60 to 5.00,> 5.52,,,,,
"Cc1cc(C(=O)N[C@H](C=O)Cc2ccccc2)n(-c2cnccn2)n1 [Compound 285, (S)-3-methyl-N-(1-oxo-3-phenylpropan-2-yl)-1-(pyrazin-2-yl)-1H-pyrazole-5-carboxamide]",> 5.52,> 5.52,4.60 to 5.00,< 4.60,> 5.52,,,,,
